Data published in ChEMBL document CHEMBL4507291 (2021).

Tests used:
[1] = target: Epithelial discoidin domain-containing receptor 1 (Homo sapiens) (UniProt Q08345)
[2] = target: Fibroblast growth factor receptor 3 (Homo sapiens) (UniProt P22607)
[3] = target: T1, Protein kinase C iota type (Homo sapiens) (UniProt P41743)
T1 sequence (whole entry): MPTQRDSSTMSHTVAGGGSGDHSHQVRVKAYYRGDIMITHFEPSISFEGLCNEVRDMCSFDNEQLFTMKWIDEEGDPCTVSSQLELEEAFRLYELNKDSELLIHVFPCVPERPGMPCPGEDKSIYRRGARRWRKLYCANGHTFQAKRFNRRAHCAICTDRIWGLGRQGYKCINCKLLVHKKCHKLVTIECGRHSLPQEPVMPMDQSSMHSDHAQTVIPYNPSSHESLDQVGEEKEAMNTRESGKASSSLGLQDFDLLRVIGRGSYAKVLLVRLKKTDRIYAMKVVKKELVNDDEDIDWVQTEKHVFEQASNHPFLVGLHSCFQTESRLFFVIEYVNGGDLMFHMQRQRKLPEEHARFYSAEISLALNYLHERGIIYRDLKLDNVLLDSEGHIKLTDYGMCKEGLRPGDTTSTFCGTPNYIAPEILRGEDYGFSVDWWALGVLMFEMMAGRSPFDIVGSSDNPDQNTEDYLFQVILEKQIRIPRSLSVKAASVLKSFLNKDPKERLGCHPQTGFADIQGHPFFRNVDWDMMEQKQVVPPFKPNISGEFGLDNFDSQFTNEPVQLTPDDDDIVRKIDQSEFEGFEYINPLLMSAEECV

[4] = target: Casein kinase I isoform alpha (Homo sapiens) (UniProt P48729)
Chain of Casein kinase I isoform alpha (Homo sapiens) (P48729 2-337 limits assumed): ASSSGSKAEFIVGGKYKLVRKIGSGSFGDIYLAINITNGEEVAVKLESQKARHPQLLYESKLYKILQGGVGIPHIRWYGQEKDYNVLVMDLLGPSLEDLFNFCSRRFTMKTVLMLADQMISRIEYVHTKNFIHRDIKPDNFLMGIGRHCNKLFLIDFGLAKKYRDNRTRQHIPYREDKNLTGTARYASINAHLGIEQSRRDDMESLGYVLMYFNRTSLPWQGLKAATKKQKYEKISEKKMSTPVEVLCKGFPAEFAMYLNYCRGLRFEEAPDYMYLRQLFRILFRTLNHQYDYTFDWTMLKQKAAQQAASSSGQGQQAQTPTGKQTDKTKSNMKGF

[5] = target: T2, Tyrosine-protein kinase Tec (Homo sapiens) (UniProt P42680)
T2 sequence (whole entry): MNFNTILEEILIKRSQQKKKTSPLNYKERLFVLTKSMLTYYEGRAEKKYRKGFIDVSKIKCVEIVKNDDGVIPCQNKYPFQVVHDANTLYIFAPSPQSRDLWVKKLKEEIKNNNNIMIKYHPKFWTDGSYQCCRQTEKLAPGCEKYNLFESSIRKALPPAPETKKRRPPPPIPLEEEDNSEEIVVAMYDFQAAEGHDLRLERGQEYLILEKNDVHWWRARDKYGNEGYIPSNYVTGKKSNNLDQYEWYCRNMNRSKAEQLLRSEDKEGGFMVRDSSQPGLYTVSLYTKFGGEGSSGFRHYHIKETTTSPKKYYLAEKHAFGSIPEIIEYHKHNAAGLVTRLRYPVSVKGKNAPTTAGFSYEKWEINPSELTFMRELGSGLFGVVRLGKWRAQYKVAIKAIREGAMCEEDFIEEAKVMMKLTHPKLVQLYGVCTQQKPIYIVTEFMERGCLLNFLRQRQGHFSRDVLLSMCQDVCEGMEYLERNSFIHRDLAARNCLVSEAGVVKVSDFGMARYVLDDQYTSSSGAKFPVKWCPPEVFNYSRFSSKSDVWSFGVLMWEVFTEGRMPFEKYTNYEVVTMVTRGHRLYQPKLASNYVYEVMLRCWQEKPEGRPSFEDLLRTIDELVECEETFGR

[6] = target: T3, Dual specificity protein kinase TTK (Homo sapiens) (UniProt P33981)
T3 sequence (whole entry): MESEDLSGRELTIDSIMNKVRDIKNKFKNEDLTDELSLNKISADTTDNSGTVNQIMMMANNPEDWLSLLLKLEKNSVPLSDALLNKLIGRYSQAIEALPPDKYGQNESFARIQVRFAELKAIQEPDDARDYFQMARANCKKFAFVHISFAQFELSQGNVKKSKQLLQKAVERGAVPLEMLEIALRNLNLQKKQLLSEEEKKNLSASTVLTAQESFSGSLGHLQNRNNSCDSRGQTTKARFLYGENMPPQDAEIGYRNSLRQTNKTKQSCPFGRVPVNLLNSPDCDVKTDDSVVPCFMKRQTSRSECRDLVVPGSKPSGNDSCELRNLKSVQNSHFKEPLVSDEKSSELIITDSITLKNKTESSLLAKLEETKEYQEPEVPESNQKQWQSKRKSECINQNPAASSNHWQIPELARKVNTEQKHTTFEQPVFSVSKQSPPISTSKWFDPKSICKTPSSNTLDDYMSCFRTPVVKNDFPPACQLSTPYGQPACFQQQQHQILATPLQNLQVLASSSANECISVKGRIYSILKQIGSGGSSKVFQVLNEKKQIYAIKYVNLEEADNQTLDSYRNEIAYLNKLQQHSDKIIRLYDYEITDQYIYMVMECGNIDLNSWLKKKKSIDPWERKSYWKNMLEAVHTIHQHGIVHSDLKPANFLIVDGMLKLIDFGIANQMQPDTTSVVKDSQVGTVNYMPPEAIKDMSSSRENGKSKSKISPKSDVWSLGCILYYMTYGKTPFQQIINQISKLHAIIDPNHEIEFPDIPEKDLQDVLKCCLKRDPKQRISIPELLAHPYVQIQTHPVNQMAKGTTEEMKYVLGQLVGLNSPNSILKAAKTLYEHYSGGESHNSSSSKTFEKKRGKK

[7] = target: Mitogen-activated protein kinase 4 (Homo sapiens) (UniProt P31152)
Chain of Mitogen-activated protein kinase 4 (Homo sapiens) (P31152 whole entry): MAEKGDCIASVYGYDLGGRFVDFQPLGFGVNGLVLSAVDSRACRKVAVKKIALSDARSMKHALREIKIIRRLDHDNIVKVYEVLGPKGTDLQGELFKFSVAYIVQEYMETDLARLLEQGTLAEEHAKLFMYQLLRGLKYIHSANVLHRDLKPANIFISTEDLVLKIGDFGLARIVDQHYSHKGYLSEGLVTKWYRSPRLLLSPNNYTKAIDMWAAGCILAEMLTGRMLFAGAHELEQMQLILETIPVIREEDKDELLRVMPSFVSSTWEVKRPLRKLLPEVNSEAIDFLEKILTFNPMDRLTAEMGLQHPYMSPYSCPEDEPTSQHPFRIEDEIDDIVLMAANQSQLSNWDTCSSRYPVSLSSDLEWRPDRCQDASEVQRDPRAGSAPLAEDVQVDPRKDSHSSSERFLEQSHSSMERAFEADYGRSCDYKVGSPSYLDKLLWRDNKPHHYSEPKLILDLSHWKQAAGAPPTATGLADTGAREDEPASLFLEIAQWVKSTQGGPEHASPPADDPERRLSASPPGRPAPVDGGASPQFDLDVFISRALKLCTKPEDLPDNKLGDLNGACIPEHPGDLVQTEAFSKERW

[8] = test system: Mast/stem cell growth factor receptor Kit (Homo sapiens), P10721 [A829P]
Chain of Mast/stem cell growth factor receptor Kit (Homo sapiens), P10721 [A829P] (P10721 whole entry A829P): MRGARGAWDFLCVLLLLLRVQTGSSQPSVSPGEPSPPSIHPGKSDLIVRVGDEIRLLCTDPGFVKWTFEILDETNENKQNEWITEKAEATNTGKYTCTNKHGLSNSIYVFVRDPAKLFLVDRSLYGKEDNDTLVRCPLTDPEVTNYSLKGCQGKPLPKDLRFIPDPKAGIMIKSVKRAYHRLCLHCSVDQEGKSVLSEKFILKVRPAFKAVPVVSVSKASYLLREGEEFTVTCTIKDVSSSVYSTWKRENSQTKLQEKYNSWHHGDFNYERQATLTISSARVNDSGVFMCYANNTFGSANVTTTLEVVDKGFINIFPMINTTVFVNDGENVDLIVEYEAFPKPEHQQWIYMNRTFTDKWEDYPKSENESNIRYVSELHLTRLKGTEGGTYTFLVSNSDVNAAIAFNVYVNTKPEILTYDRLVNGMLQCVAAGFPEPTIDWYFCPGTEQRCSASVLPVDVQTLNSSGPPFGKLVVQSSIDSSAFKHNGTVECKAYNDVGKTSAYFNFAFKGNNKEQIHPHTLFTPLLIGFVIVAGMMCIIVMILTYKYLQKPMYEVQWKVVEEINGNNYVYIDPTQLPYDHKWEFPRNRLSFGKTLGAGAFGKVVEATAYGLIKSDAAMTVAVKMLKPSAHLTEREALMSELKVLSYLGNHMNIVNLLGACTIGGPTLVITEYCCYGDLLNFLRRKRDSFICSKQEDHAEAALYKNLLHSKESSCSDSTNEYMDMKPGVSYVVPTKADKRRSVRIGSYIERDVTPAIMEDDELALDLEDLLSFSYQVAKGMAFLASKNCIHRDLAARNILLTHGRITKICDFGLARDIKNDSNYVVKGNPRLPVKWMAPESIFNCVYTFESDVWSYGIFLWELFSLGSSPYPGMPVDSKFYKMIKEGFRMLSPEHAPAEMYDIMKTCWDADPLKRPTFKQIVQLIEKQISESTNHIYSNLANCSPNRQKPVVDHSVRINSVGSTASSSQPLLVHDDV

[9] = target: Platelet-derived growth factor receptor beta (Homo sapiens) (UniProt P09619)
Chain of Platelet-derived growth factor receptor beta (Homo sapiens) (P09619 whole entry): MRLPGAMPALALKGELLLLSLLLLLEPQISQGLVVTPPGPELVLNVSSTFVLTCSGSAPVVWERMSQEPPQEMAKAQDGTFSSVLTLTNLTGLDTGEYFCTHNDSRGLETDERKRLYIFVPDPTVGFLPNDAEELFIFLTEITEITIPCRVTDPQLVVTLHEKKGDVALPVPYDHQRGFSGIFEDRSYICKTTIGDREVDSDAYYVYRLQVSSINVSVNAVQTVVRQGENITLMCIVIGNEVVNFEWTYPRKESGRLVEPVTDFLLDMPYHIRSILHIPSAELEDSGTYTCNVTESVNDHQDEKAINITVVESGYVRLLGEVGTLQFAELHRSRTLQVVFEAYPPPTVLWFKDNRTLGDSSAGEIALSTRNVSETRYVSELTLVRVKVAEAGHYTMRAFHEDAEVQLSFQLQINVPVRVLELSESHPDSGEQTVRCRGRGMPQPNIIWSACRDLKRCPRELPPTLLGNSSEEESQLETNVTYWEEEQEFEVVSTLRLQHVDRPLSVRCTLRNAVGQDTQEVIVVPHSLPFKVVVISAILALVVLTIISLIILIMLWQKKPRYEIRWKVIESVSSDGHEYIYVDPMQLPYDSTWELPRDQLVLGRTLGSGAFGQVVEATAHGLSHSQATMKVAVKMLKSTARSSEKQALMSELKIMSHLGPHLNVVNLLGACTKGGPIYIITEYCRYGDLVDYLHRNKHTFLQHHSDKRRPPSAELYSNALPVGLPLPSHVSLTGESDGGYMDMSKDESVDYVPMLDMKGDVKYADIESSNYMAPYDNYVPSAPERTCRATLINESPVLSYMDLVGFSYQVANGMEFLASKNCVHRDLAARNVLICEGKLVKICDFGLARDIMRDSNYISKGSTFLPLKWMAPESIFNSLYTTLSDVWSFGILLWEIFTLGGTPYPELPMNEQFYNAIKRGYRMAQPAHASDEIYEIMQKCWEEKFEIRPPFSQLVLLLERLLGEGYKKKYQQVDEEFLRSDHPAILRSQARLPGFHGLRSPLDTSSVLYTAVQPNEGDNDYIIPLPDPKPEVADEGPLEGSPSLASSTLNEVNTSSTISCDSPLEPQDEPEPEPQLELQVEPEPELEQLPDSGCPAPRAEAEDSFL

[10] = target: STE20/SPS1-related proline-alanine-rich protein kinase (Homo sapiens) (UniProt Q9UEW8)
[11] = Compound concentration 1000.0 nM
[12] = Compound concentration 100.0 nM

Measured: residual activity

Chain of Fibroblast growth factor receptor 3 (Homo sapiens) (P22607 23-806 limits assumed): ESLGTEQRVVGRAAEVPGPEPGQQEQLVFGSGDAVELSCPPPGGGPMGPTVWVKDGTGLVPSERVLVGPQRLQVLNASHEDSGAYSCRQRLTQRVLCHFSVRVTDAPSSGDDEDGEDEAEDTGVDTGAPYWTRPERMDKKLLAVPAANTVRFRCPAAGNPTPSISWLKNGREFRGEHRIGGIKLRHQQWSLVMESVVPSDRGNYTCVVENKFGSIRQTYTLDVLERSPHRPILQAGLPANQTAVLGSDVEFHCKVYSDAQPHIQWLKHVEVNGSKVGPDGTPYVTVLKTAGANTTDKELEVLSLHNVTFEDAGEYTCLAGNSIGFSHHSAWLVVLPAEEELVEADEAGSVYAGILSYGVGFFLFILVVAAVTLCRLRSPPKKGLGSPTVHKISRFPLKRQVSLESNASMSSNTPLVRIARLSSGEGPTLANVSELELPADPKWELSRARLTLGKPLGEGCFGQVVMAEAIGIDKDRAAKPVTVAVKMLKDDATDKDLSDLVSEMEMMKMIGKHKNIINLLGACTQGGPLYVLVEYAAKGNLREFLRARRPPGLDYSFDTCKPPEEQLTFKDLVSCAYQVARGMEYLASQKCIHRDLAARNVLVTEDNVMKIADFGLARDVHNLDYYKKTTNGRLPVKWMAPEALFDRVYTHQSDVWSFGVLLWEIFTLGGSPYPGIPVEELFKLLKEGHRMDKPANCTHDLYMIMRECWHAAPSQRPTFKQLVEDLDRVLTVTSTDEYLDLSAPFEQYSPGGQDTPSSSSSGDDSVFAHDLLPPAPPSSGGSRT
Chain of Epithelial discoidin domain-containing receptor 1 (Homo sapiens) (Q08345 whole entry, the tested form may be a part): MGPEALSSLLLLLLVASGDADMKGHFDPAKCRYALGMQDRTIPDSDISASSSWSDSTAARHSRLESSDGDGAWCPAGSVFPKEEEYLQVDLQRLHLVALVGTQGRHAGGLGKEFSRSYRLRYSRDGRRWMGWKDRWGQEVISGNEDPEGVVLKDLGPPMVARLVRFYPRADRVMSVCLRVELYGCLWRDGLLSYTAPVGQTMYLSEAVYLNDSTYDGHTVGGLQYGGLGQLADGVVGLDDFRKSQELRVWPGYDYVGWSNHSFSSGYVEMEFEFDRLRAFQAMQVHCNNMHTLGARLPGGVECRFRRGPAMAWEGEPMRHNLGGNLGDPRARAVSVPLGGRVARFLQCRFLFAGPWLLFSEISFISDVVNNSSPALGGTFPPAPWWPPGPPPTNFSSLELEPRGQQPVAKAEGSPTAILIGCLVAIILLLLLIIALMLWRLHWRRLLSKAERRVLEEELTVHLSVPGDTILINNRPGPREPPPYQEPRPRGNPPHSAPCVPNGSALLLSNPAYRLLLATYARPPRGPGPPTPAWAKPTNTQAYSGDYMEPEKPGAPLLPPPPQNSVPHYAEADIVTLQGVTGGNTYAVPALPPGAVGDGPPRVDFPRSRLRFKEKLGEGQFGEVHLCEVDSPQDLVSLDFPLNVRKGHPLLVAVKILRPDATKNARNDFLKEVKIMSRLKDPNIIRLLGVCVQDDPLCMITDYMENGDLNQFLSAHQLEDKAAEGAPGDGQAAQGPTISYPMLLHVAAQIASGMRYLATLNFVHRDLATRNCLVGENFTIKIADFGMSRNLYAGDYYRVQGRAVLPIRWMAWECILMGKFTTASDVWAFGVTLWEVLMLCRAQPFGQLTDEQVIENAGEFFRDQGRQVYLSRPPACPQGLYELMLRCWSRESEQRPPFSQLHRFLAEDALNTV

C[C@@H]1CN(c2cc(-c3nn(C)c4ccc(OC5(C)CC5)cc34)ncn2)C[C@H](C)O1 [MLi-2-NC]
inactive: [1]; [11] 68% | [2]; [11] 100% | [3]; [11] 100% | [4]; [11] 100% | [5]; [11] 100% | [6]; [11] 100% | [7]; [11] 93% | [8]; [11] 60% | [9]; [11] 100% | [10]; [11] 70%

C[C@@H]1CN(c2cc(-c3n[nH]c4ccc(OC5(C)CC5)cc34)ncn2)C[C@H](C)O1 [MLi-2]
inactive: [1]; [12] 91% | [2]; [12] 74% | [3]; [12] 80% | [4]; [12] 73% | [5]; [12] 74% | [6]; [12] 74% | [7]; [12] 83% | [8]; [12] 62% | [9]; [12] 73% | [10]; [12] 85%
